{"source": "paper PMC5069568", "about": "(Diabetes, Obesity & Metabolism, 2016)", "format_in_all_cases": "in vivo, human", "key": {"[1]": {"system": "obese or overweight adults", "assay": "Exposure–safety outcome analyses"}, "[2]": {"system": "obese or overweight adults with type 2 diabetes", "assay": "Exposure–HbA1c analysis, Trial 2", "settings": "Trial 2, type 2 diabetes, corresponds to ∼500 nM × h"}, "[3]": {"system": "obese or overweight adults", "assay": "Exposure–body weight loss analysis, clinical Trials 1–3", "settings": "Trial 1, liraglutide 3.0 mg, overall female population"}}}
{"smiles": "CCCCCCCCCCCCCCCC(=O)N[C@@H](CCC(=O)NCCCC[C@H](NC(=O)[C@H](C)NC(=O)[C@H](C)NC(=O)[C@H](CCC(N)=O)NC(=O)CNC(=O)[C@H](CCC(=O)O)NC(=O)[C@H](CC(C)C)NC(=O)[C@H](Cc1ccc(O)cc1)NC(=O)[C@H](CO)NC(=O)[C@H](CO)NC(=O)[C@@H](NC(=O)[C@H](CC(=O)O)NC(=O)[C@H](CO)NC(=O)[C@@H](NC(=O)[C@H](Cc1ccccc1)NC(=O)[C@@H](NC(=O)CNC(=O)[C@H](CCC(=O)O)NC(=O)[C@H](C)NC(=O)[C@@H](N)Cc1cnc[nH]1)[C@@H](C)O)[C@@H](C)O)C(C)C)C(=O)N[C@@H](CCC(=O)O)C(=O)N[C@@H](Cc1ccccc1)C(=O)N[C@H](C(=O)N[C@@H](C)C(=O)N[C@@H](Cc1c[nH]c2ccccc12)C(=O)N[C@@H](CC(C)C)C(=O)N[C@H](C(=O)N[C@@H](CCCNC(=N)N)C(=O)NCC(=O)N[C@@H](CCCNC(=N)N)C(=O)NCC(=O)O)C(C)C)[C@@H](C)CC)C(=O)O", "note": "[liraglutide, Liraglutide]", "values": [{"measurement": "effect on serum calcitonin levels", "setting": "[1]; all three trials, change from baseline over all exposure quantiles", "result": "did not result in elevated serum calcitonin levels"}, {"measurement": "increase in mean resting pulse versus placebo", "setting": "[1]; liraglutide-treated individuals, doses 1.2–3.0 mg, Trials 1–3", "result": "2–3 beats per min"}, {"measurement": "liraglutide plasma concentration at which HbA1c reduction plateaued", "setting": "[2]", "result": "~21", "unit": "nM"}, {"measurement": "weight loss", "setting": "[3]", "result": 9.3, "unit": "kg"}, {"measurement": "weight loss from baseline", "setting": "[3]", "result": 9.2, "unit": "%"}]}
